Consider one compound from ChEMBL document CHEMBL4422618, “Translational impact of novel widely pharmacological characterized mofezolac-derived COX-1 inhibitors combined with bortezomib on human multiple myeloma cell lines viability” (Eur J Med Chem, 2019).

The term IC50 denotes the concentration needed to halve the response being measured. Read a high IC50 as lower potency.

Calls of active or inactive are those of the source. The rule behind the calls is not given here. Bounds are passed on as bounds.

The subject of data set [1] is NCI-H929. Briefly: Induction of apoptosis in human NCI-H929 cells assessed as necrotic cells at 42 nM after 48 hrs by Annexin-V/propidium iodide staining based flow cytometric method (reference value: 0.0034%). Format: functional. (In general: Flow cytometry measures light scatter and fluorescence of single cells or particles in a stream.)
For data set [2], the system named is RPMI-8226. Description: Induction of apoptosis in human RPMI8226 cells assessed as late apoptotic cells at 42 nM after 48 hrs in presence of bortezomib by Annexin-V/propidium iodide staining based flow cytometric method (reference value: 0.21%). Format: functional.
Data set [3] deals with NCI-H929. Briefly: Induction of apoptosis in human NCI-H929 cells assessed as viable cells at 42 nM after 48 hrs in presence of bortezomib by Annexin-V/propidium iodide staining based flow cytometric method (reference value: 82.6%). Format: functional. Particulars: NCI-H929, 48 h, read-out: Activity.
Another data set deals with Plasma. Description: Anticoagulant activity in human platelet poor plasma assessed as activated partial thromboplastin time at 100 uM incubated for 15 mins at room temperature and subsequent incubation for 2 mins at 37 degreeC followed by cephalin addition and measured after 2 mins for every secs in presence of CaCl2. Type of data set: functional.
In data set [4] the test system is NCI-H929. Briefly: Induction of apoptosis in human NCI-H929 cells assessed as necrotic cells at 42 nM after 48 hrs in presence of bortezomib by Annexin-V/propidium iodide staining based flow cytometric method (reference value: 0.0034%). Type of data set: functional.
Data set [5] concerns RPMI-8226. Briefly: Induction of apoptosis in human RPMI8226 cells assessed as viable cells at 42 nM after 48 hrs in presence of bortezomib by Annexin-V/propidium iodide staining based flow cytometric method (reference value: 98.7%). Format: functional. Particulars: RPMI-8226, 48 h, read-out: Activity.
A short description of data set [6]: Hemolytic activity in erythrocytes (unknown origin) at 100 uM after 3 hrs by spectrophotometric analysis. Format: ADME, cell-based, Erythrocyte. Particulars: read-out: Activity.
Data set [7] deals with NCI-H929. Briefly: Induction of apoptosis in human NCI-H929 cells assessed as early apoptotic cells at 42 nM after 48 hrs by Annexin-V/propidium iodide staining based flow cytometric method (reference value: 17.1%). Format: functional.
Data set [8] has as its system RPMI-8226. Briefly: Cell cycle arrest in human RPMI8226 cells assessed as accumulation at G0/G1 phase at 42 nM after 48 hrs by propidium iodide/RNase staining based flow cytometric method. Type of data set: functional.
Data set [9] concerns the target T1, Prostaglandin G/H synthase 2 (Homo sapiens, UniProt P35354).
T1 sequence (P35354 whole entry): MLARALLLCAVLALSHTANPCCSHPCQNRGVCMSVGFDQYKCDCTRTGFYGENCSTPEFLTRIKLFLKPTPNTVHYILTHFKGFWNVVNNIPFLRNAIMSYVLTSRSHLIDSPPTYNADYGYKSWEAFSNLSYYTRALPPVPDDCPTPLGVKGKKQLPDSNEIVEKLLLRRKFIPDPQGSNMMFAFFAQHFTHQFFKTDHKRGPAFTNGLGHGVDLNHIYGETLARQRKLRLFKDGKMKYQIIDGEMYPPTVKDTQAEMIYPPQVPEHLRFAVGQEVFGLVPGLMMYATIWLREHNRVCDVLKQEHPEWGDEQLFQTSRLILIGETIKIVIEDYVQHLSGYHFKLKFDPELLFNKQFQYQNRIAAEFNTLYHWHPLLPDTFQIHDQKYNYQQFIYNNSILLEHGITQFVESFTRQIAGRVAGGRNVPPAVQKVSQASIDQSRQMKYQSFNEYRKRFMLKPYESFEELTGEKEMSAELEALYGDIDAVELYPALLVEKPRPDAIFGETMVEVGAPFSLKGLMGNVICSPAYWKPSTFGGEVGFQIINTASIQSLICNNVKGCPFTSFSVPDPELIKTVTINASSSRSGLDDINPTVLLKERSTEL
Briefly: Inhibition of human COX2 using arachidonic acid as substrate by colorimetric assay.

As to `C=Cc1onc(-c2ccc(OC)cc2)c1-c1ccc(OC)cc1`, the Activity with NCI-H929 [1] was found to be 0.012%; in the data set with RPMI-8226 [2], 0.37%; in the data set with NCI-H929 [4], 0%; in the data set on NCI-H929 [7], 16.9%. For the same compound, the results for the viability at 0.042 µM in the data set with NCI-H929 [3] and with RPMI-8226 [5] were 39.2% and 89.9%, respectively. Moreover, the APTT in the data set on Plasma is recorded as 51.2 s. The hemolysis at 3 h, 100 µM in data set [6] is 0%. The result in the data set with RPMI-8226 [8] was inactive. In [9], this compound returned an IC50 greater than 50 µM.
